Results published in US8754036B2, “Method for treating neuropathic pain” (National University Corporation Nagoya University, priority 2007, dated 2014).

Tested on: neurons from primary cortical nerve tissue
Test: Suppression of Rho kinase activation (neurite lengths, keratan sulfate, Y27632)
Assay type: cell-based, mice
Method: Next, participation of Rho kinase was investigated in order to investigate the action mechanism of keratanase II in the above Experiment 1. The neurons were seeded onto an 8-well chamber to which a test sample was applied by the same manner as in the method of Experiment 1. Twenty-four hours after starting the incubation of the neurons, 15 μM of Y27632 (Rho kinase inhibitor, Sigma) was added to the neurons followed by incubating for 24 hours more. After that, the chamber was fixed with 4% of paraformaldehyde and the neurons were identified by an immunohistochemical means with Neuronal Class IIIβ tubulin (TUJ1) antibody (COVANCE). The neurite lengths were measured of from 80 to 90 neurons per condition, an average value thereof was calculated and shown by a graph. The test sample was the following four types.
(1) that which was applied with 25 μg/mL of poly-L-lysine (Sigma; hereinafter, the same) followed by being applied with 10 μg/mL of laminin (BD Biosciences; hereinafter, the same).
(2) that which was applied with 25 μg/mL of poly-L-lysine followed by being applied with 10 μg/mL of laminin and 20 μg/mL of keratan sulfate (Seikagaku Corporation; hereinafter, the same).
(3) that which was applied with 25 μg/mL of poly-L-lysine followed by being applied with 10 μg/mL of laminin and 40 μg/mL of keratan sulfate. […]

Compound	effect on elongation of the neurite lengths (keratan sulfate 20 or 40 μg/mL on poly-L-lysine/laminin)	release of inhibiting action for elongation of neurite lengths induced by keratan sulfate (keratan sulfate on poly-L-lysine/laminin, Y27632 15 μM or Ks36 keratanase II 0.01 U/mL without Y27632)
keratan sulfate	induces the inhibition	
C[C@@H](N)[C@H]1CC[C@H](C(=O)Nc2ccncc2)CC1 [Y27632]		released
